Species on record: Rattus norvegicus
Experiment: Open TG-GATES - Regimen: Single
Format: toxicity, organism-based, Sprague-Dawley
Set-up: regimen Single, gender Male, age 6 weeks
Conditions: in vivo, po, route gavage; for TC / TG / TP / gamma-GTP / ALT / AST / CRE / Ca / DBIL / GLC / K / LDH / Na / PL / RALB / TBIL / Cl / ALP: tissue Plasma; for Bas / Eos / Fbg / Hb / Ht / Lym / MCHC / MCV / Mono / PT / Plat / RBC / WBC / APTT: tissue Blood; for KIDNEY_L / KIDNEY_R / KIDNEY_TOTAL: tissue Kidney; for LIVER: tissue Liver
[1] = 240 mg/kg, 3 h, dose level Middle
[2] = 240 mg/kg, 6 h, dose level Middle
[3] = 240 mg/kg, 9 h, dose level Middle
[4] = 240 mg/kg, 24 h, dose level Middle
[5] = 800 mg/kg, 3 h, dose level High
[6] = 800 mg/kg, 6 h, dose level High
[7] = 800 mg/kg, 9 h, dose level High
[8] = 800 mg/kg, 24 h, dose level High

Structure (SMILES): COc1ccc([C@@H]2Sc3ccccc3N(CCN(C)C)C(=O)[C@@H]2OC(C)=O)cc1 [DILTIAZEM]
- TC (80 mg/kg, 24 h, dose level Low): 78.2 mg/dL
- TG (80 mg/kg, 24 h, dose level Low): 67.8 mg/dL
- TP (80 mg/kg, 24 h, dose level Low): 5.5 g/dL
- gamma-GTP (80 mg/kg, 24 h, dose level Low): 1 IU/L
- TERMINAL_BW [1]: 186.7 g
- Bas [1]: 0%
- Eos [1]: 0.8%
- Fbg [1]: 284.8 mg/dL
- Hb [1]: 12.6 g/dL
- Ht [1]: 38.9%
- Lym [1]: 75%
- MCHC [1]: 32.3%
- MCV [1]: 65.9 fL
- Mono [1]: 3.2%
- PT [1]: 14.7 s
- Plat [1]: 119.4 x10_4/uL
- RBC [1]: 588.8 x10_4/ul
- WBC [1]: 87.8 x10_2/uL
- KIDNEY_L [1]: 0.9 g
- KIDNEY_R [1]: 0.9 g
- KIDNEY_TOTAL [1]: 1.7 g
- LIVER [1]: 8.4 g
- ALT [1]: 45.2 IU/L
- AST [1]: 84 IU/L
- CRE [1]: 0.2 mg/dL
- Ca [1]: 10.8 mg/dL
- DBIL [1]: 0.012 mg/dL
- GLC [1]: 186.4 mg/dL
- K [1]: 4.4 meq/L
- LDH [1]: 70.4 IU/L
- Na [1]: 142 meq/L
- PL [1]: 136.8 mg/dL
- RALB [1]: 2.5 g/dL
- TBIL [1]: 0.03 mg/dL
- TC [1]: 75 mg/dL
- TG [1]: 58 mg/dL
- TP [1]: 5.2 g/dL
- gamma-GTP [1]: 1 IU/L
- TERMINAL_BW [2]: 187.5 g
- Bas [2]: 0%
- Eos [2]: 0.8%
- Fbg [2]: 303.8 mg/dL
- Ht [2]: 40.7%
- Lym [2]: 80%
- MCHC [2]: 32%
- MCV [2]: 67.1 fL
- Mono [2]: 3%
- PT [2]: 14.7 s
- Plat [2]: 120.8 x10_4/uL
- RBC [2]: 608.2 x10_4/ul
- WBC [2]: 79.2 x10_2/uL
- KIDNEY_L [2]: 0.9 g
- KIDNEY_R [2]: 0.8 g
- KIDNEY_TOTAL [2]: 1.7 g
- LIVER [2]: 8.1 g
- ALT [2]: 44.8 IU/L
- AST [2]: 73.4 IU/L
- CRE [2]: 0.2 mg/dL
- Ca [2]: 10.9 mg/dL
- Cl [2]: 106.6 meq/L
- DBIL [2]: 0.014 mg/dL
- GLC [2]: 182.8 mg/dL
- K [2]: 4.2 meq/L
- LDH [2]: 54.4 IU/L
- Na [2]: 142.8 meq/L
- PL [2]: 153.6 mg/dL
- RALB [2]: 2.6 g/dL
- TBIL [2]: 0.034 mg/dL
- TC [2]: 86.2 mg/dL
- TG [2]: 47.2 mg/dL
- TP [2]: 5.3 g/dL
- gamma-GTP [2]: 1.2 IU/L
- TERMINAL_BW [3]: 182 g
- APTT [3]: 17.3 s
- Bas [3]: 0.2%
- Eos [3]: 0.8%
- Fbg [3]: 305.8 mg/dL
- Hb [3]: 12.9 g/dL
- Ht [3]: 40.1%
- Lym [3]: 78.6%
- MCHC [3]: 32.2%
- MCV [3]: 67 fL
- Mono [3]: 2.6%
- PT [3]: 14.8 s
- Plat [3]: 121.1 x10_4/uL
- RBC [3]: 599.4 x10_4/ul
- WBC [3]: 83.9 x10_2/uL
- KIDNEY_L [3]: 0.9 g
- KIDNEY_R [3]: 0.9 g
- KIDNEY_TOTAL [3]: 1.7 g
- LIVER [3]: 7.9 g
- ALT [3]: 41.8 IU/L
- AST [3]: 71.8 IU/L
- CRE [3]: 0.1 mg/dL
- Ca [3]: 10.7 mg/dL
- Cl [3]: 105.6 meq/L
- DBIL [3]: 0.012 mg/dL
- GLC [3]: 171.6 mg/dL
- K [3]: 4.1 meq/L
- LDH [3]: 50.8 IU/L
- Na [3]: 143 meq/L
- PL [3]: 150.4 mg/dL
- RALB [3]: 2.5 g/dL
- TBIL [3]: 0.028 mg/dL
- TC [3]: 82 mg/dL
- TG [3]: 45.8 mg/dL
- TP [3]: 5.2 g/dL
- gamma-GTP [3]: 1 IU/L
- TERMINAL_BW [4]: 196.9 g
- Bas [4]: 0%
- Eos [4]: 1%
- Fbg [4]: 271.8 mg/dL
- Hb [4]: 13 g/dL
- Ht [4]: 39.6%
- Lym [4]: 75.6%
- MCHC [4]: 32.9%
- MCV [4]: 64.6 fL
- Mono [4]: 2.8%
- PT [4]: 14.8 s
- Plat [4]: 120 x10_4/uL
- RBC [4]: 614.2 x10_4/ul
- WBC [4]: 85.8 x10_2/uL
- KIDNEY_L [4]: 0.9 g
- KIDNEY_R [4]: 0.9 g
- KIDNEY_TOTAL [4]: 1.8 g
- LIVER [4]: 9.5 g
- ALT [4]: 51 IU/L
- AST [4]: 76.2 IU/L
- CRE [4]: 0.2 mg/dL
- Ca [4]: 11.2 mg/dL
- Cl [4]: 106.8 meq/L
- DBIL [4]: 0.018 mg/dL
- GLC [4]: 173.6 mg/dL
- K [4]: 4.2 meq/L
- LDH [4]: 82.4 IU/L
- Na [4]: 144.4 meq/L
- PL [4]: 150.4 mg/dL
- RALB [4]: 2.7 g/dL
- TBIL [4]: 0.022 mg/dL
- TC [4]: 81.2 mg/dL
- TG [4]: 95.8 mg/dL
- TP [4]: 5.5 g/dL
- gamma-GTP [4]: 1.2 IU/L
- TERMINAL_BW [5]: 189.3 g
- Bas [5]: 0%
- Eos [5]: 0.4%
- Fbg [5]: 277.6 mg/dL
- Hb [5]: 12.7 g/dL
- Ht [5]: 39.2%
- Lym [5]: 69.6%
- MCHC [5]: 32.5%
- MCV [5]: 65.1 fL
- Mono [5]: 4.4%
- PT [5]: 14.6 s
- Plat [5]: 121.1 x10_4/uL
- RBC [5]: 601.6 x10_4/ul
- WBC [5]: 95.2 x10_2/uL
- KIDNEY_L [5]: 0.8 g
- KIDNEY_R [5]: 0.9 g
- KIDNEY_TOTAL [5]: 1.7 g
- LIVER [5]: 8.3 g
- ALT [5]: 52.6 IU/L
- AST [5]: 92 IU/L
- CRE [5]: 0.2 mg/dL
- Ca [5]: 10.7 mg/dL
- Cl [5]: 103.8 meq/L
- DBIL [5]: 0.008 mg/dL
- GLC [5]: 193 mg/dL
- K [5]: 4.4 meq/L
- LDH [5]: 64.4 IU/L
- Na [5]: 140.8 meq/L
- PL [5]: 137.2 mg/dL
- RALB [5]: 2.5 g/dL
- TBIL [5]: 0.028 mg/dL
- TC [5]: 76.8 mg/dL
- TG [5]: 48.4 mg/dL
- TP [5]: 5.2 g/dL
- gamma-GTP [5]: 1 IU/L
- TERMINAL_BW [6]: 185.7 g
- APTT [6]: 17.5 s
- Bas [6]: 0.4%
- Eos [6]: 0.8%
- Fbg [6]: 311 mg/dL
- Hb [6]: 13.3 g/dL
- Ht [6]: 41.5%
- Lym [6]: 77.6%
- MCHC [6]: 32.1%
- MCV [6]: 66 fL
- Mono [6]: 3.2%
- PT [6]: 14.7 s
- Plat [6]: 126.6 x10_4/uL
- RBC [6]: 629 x10_4/ul
- WBC [6]: 95.6 x10_2/uL
- KIDNEY_L [6]: 0.8 g
- KIDNEY_R [6]: 0.8 g
- KIDNEY_TOTAL [6]: 1.7 g
- LIVER [6]: 7.8 g
- ALT [6]: 45 IU/L
- AST [6]: 74.6 IU/L
- CRE [6]: 0.2 mg/dL
- Ca [6]: 10.7 mg/dL
- DBIL [6]: 0.008 mg/dL
- GLC [6]: 176 mg/dL
- K [6]: 4 meq/L
- LDH [6]: 59.2 IU/L
- Na [6]: 143 meq/L
- PL [6]: 158.8 mg/dL
- RALB [6]: 2.5 g/dL
- TBIL [6]: 0.032 mg/dL
- TC [6]: 91.8 mg/dL
- TG [6]: 40.6 mg/dL
- TP [6]: 5.2 g/dL
- gamma-GTP [6]: 1 IU/L
- TERMINAL_BW [7]: 185.3 g
- Bas [7]: 0%
- Eos [7]: 0.8%
- Fbg [7]: 316.2 mg/dL
- Hb [7]: 12.6 g/dL
- Ht [7]: 38.6%
- Lym [7]: 74.8%
- MCHC [7]: 32.6%
- MCV [7]: 62.9 fL
- Mono [7]: 2.8%
- PT [7]: 14.7 s
- Plat [7]: 132.9 x10_4/uL
- RBC [7]: 613 x10_4/ul
- WBC [7]: 97 x10_2/uL
- KIDNEY_L [7]: 0.8 g
- KIDNEY_R [7]: 0.8 g
- KIDNEY_TOTAL [7]: 1.6 g
- LIVER [7]: 7.2 g
- ALP [7]: 1763.8 IU/L
- ALT [7]: 48.4 IU/L
- AST [7]: 81.2 IU/L
- CRE [7]: 0.2 mg/dL
- Ca [7]: 10.4 mg/dL
- Cl [7]: 105.8 meq/L
- DBIL [7]: 0.01 mg/dL
- GLC [7]: 170.2 mg/dL
- K [7]: 4.2 meq/L
- LDH [7]: 53.6 IU/L
- Na [7]: 142.4 meq/L
- PL [7]: 144.8 mg/dL
- RALB [7]: 2.6 g/dL
- TBIL [7]: 0.026 mg/dL
- TC [7]: 78.4 mg/dL
- TG [7]: 59 mg/dL
- TP [7]: 5.3 g/dL
- gamma-GTP [7]: 1.2 IU/L
- TERMINAL_BW [8]: 195.5 g
- Bas [8]: 0%
- Eos [8]: 0.8%
- Fbg [8]: 299 mg/dL
- Ht [8]: 39.9%
- Lym [8]: 76.6%
- MCHC [8]: 33%
- MCV [8]: 64.4 fL
- Mono [8]: 4.4%
- PT [8]: 15 s
- Plat [8]: 125.7 x10_4/uL
- RBC [8]: 621.2 x10_4/ul
- WBC [8]: 83.8 x10_2/uL
- KIDNEY_L [8]: 0.9 g
- KIDNEY_R [8]: 0.9 g
- KIDNEY_TOTAL [8]: 1.7 g
- LIVER [8]: 9.3 g
- ALP [8]: 2052.4 IU/L
- ALT [8]: 41.2 IU/L
- AST [8]: 66.6 IU/L
- CRE [8]: 0.2 mg/dL
- Ca [8]: 11.1 mg/dL
- Cl [8]: 107.6 meq/L
- DBIL [8]: 0.02 mg/dL
- GLC [8]: 168.6 mg/dL
- K [8]: 4.3 meq/L
- LDH [8]: 87.2 IU/L
- Na [8]: 144 meq/L
- PL [8]: 144.8 mg/dL
- RALB [8]: 2.7 g/dL
- TBIL [8]: 0.018 mg/dL
- TC [8]: 77.4 mg/dL
- TG [8]: 108.6 mg/dL
- TP [8]: 5.6 g/dL
- gamma-GTP [8]: 1 IU/L

Source: ChEMBL document CHEMBL3885861, “Open TG-GATES”
